Tests used:
[1] = molecular target: T1, TRPM5 (Homo sapiens, UniProt Q9NZQ8); assay: TRPM5 inhibition (FLIPR Membrane Potential Assay); assay type: cell-based
T1 sequence (Q9NZQ8 1-1165): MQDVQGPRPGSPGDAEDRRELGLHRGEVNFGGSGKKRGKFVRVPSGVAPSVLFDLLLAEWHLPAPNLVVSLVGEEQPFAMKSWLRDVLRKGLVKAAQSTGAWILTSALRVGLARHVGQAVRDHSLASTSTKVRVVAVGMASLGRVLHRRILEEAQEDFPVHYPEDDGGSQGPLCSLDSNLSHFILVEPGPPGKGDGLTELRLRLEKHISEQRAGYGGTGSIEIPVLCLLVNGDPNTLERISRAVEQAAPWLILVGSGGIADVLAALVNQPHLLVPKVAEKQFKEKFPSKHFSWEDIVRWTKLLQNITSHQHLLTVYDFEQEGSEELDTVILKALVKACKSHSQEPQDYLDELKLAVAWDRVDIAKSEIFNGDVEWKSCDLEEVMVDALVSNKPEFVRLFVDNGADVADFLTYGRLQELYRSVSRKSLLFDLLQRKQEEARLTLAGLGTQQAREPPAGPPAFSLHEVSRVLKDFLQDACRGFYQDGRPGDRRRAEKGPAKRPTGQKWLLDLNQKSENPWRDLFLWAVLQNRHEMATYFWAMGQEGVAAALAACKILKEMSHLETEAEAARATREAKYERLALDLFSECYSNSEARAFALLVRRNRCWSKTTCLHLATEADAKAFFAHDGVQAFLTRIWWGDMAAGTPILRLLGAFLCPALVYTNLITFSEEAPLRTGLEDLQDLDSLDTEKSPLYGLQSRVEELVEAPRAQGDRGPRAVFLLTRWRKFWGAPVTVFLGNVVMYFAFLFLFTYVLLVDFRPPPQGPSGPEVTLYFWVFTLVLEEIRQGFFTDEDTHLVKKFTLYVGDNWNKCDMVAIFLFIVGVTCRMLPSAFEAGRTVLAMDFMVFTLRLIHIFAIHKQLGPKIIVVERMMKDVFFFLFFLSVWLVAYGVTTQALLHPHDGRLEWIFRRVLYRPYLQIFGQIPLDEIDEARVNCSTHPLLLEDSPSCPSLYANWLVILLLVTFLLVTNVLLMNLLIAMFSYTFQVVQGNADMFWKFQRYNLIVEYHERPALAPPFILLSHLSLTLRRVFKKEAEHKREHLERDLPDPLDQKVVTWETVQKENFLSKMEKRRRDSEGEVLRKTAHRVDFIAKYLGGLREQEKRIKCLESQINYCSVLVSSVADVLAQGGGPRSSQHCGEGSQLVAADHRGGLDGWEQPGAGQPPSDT

[2] = tested on: GLUTag cells; assay: GLP-1 release from GLUTag cells (GLP-1 ELISA); assay type: cell-based, mouse; details: 12.5 mM glucose, FIG. 17
Experimental: Mouse GLUTag cells are a native intestinal cell line which expresses TRPM5. The cell line was obtained from Dr. Daniel J. Drucker in the Division of Endocrinology, Department of Medicine, at University of Toronto, and grown in Invitrogen Dulbecco's Modified Eagle's Medium (DMEM) high glucose (Cat #: 11995) with 10% fetal bovine serum (FBS) and 1× penn/strep antibiotic mix in a 37° C. incubator with 5% CO2.
All reagents and media were pre-warmed to room temperature prior to the beginning of the experiment. Substrate diluent and the light-sensitive Substrate were thawed out right before use.
BD 96-well Matrigel-coated plates (Fisher, Cat #: 08-774-166) with GLUTag cells were rehydrated using 100 μL of plating media (Invitrogen's (Cat #: 31985) OPTI-Modified Eagle's Medium (MEM) with 10% FBS and 1× penn/strep antibiotic mix) and incubated for 30 minutes in a 37° C. incubator with 5% CO2. GLUTag cells were then trypsinized and counted. A cell dilution with seeding density of 7.5×10^5 cells/ml of GLUTag cells was created. The rehydration media was aspirated from the Matrigel coated plate. […] of cell dilution were plated into each well of the plate. The plates were then incubated overnight in a 37° C. incubator with 5% CO2.
The following protocol utilized the Millipore GLP-1 ELISA Kit (Cat. #: EGLP-35K) to analyze GLP-1 secretion from GLUTag cells in the presence of TRPM5 inhibitors/enhancers and glucose.
Stock solutions and dilution plates of TRPM5 inhibitors or enhancers were prepared. 1% of bovine serum albumin (BSA) was added to Krebb's Ringer Bicarbonate Buffer (KRBB) right before use. KRBB consists of 118.5 mM NaCl, 2.54 mM CaCl2.2H2O, 1.19 mM KH2PO4, 4.74 mM KCl, 25 mM NaHCO3, 1.19 mM MgSO4.7H2O, and 10 mM HEPES buffer at pH 7.4. The cell plates were incubated with 100 μL of KRBB for 30 minutes. The KRBB buffer was then aspirated. This incubation step was repeated once. The KRBB buffer was aspirated and replaced with 150 μL of the same buffer containing various concentration of TRPM5 inhibitors or enhancers and glucose, i.e. 12.5 mM glucose and 1.5 μM TRPM5 inhibitors. KRBB buffer without the TRPM5 inhibitors/enhancers and glucose were also tested in triplicates. Static incubations of treated cells were then performed for 2 h in a 37° C. incubator with 5% CO2.
During the last 30 minutes of the two-hour incubation, 96-well ELISA plates were prepared as follows. […]

[3] = tested on: GLUTag cells; assay: GLP-1 release from GLUTag cells (GLP-1 ELISA); assay type: cell-based, mouse; details: for IC50: Mus musculus, GLUTag cells
[4] = moderately high glucose (3.3 mM), FIG. 18

Row | IC50 [1] [nM] | IC50 ([3]; low glucose (0.1 mM), FIG. 19) [nM] | SMILES | GLP-1 secretion [2] | efficacy and potency of GLP-1 secretion, compared between compounds [2] | GLP-1 secretion ([3]; 10 mM glucose, FIG. 16) | GLP-1 release ([3]; low glucose (0.1 mM), FIG. 19) | GLP-1 release [3, 4]
1 | 600 | 600 | COc1ccc(/C=N/NC(=O)Cc2cccc3ccccc23)cc1OC [Example 3, (E)-N′-(3,4-Dimethoxybenzylidene)-2-(naphthalene-1-yl)acetohydrazide] | increase GLP-1 secretion | increases the efficacy of GLP-1 secretion | enhances GLP-1 secretion | increase GLP-1 release | increase GLP-1 release
2 | 500 | 111 | COc1ccc(/C=N/NC(=O)CCn2c3ccccc3c3ccccc32)cc1OC [Example 23, 3-Carbazol-9-ylpropionic acid (3,4-dimethoxybenzylidene)hydrazide] | increase GLP-1 secretion | more potent than the compound of Example 3 |  | increase GLP-1 release | increase GLP-1 release
